Measured values from paper PMC3274548, “Toward New Therapeutics for Skin and Soft Tissue Infections: Propargyl-Linked Antifolates Are Potent Inhibitors of MRSA and Streptococcus pyogenes” (PLoS ONE, 2012).
Values after ≈ are worked out from the molar mass of the structure shown. Where two headings read alike, the source gives them in different places.

Assays:
S. aureus DHFR = target: T1, S. aureus DHFR (Staphylococcus aureus, UniProt P0A017); assay: biochemical; assay type: biochemical; conditions: for Selectivity (h/Sa): IC50 (human)/IC50 (pathogen)
T1 construct: the DHFR gene was inserted into vector pET41 with a His8 tag for purification; His8; made in house; host or cells: E. coli BL21 (DE3)
Method: (§1) S. aureus DHFR was cloned, expressed and purified as previously described. Briefly, the DHFR gene was inserted into vector pET41 with a His8 tag for purification. The protein was expressed in E. coli BL21 (DE3) cells. […] The protein was concentrated to ∼5 mg/mL. S. pyogenes DHFR was cloned using PCR from genomic DNA and inserted in vector pET-41.
(§2) Enzyme inhibition assays were performed by monitoring the rate of NADPH oxidation by the DHFR enzyme at an absorbance of 340 nm over five minutes. Assays were performed in the presence of saturating concentrations of NADPH (100 µM) and initiated with dihydrofolate (1 mM). All assays were completed at 25°C in a buffer containing 20 mM TES pH 7.0, 50 mM KCl, 10 mM 2-mercaptoethanol, 0.5 mM EDTA and 1 mg/mL BSA. Inhibition was measured at least three times with inhibitor concentrations near the IC50 value and the average IC50 value is reported with a standard deviation.

S. pyogenes DHFR = S. pyogenes DHFR (Streptococcus pyogenes, UniProt Q9A091); assay: biochemical; assay type: biochemical; conditions: for Selectivity (h/Sp): IC50 (human)/IC50 (pathogen)
Method: as §1, §2

Human DHFR = target: T2, Human DHFR (Homo sapiens, UniProt P00374); assay: DHFR enzyme inhibition assay (NADPH oxidation, 340 nm); assay type: biochemical; conditions: human DHFR; average of at least three measurements; read-out: IC50 (nM) Human
T2 sequence (P00374 1-187): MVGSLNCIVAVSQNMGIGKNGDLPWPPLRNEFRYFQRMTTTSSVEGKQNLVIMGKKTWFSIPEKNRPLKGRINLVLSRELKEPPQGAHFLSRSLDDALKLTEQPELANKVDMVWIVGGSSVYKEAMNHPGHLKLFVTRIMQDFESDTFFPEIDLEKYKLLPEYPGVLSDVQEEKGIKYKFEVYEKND
Method: as §2

MRSA (S.aureus 13709) = assay: MIC, broth microdilution with Alamar Blue; assay type: cell-based, Staphylococcus aureus; conditions: for Selectivity MRSA: IC50 (MCF10)/MIC (pathogen), both values in µM; for MIC: Staphylococcus aureus, MRSA
Method: (§3) Stock solutions of standard antibiotics and test compounds were made at 50 mM in DMSO. […] For susceptibility testing, 10 µL of glycerol stock was suspended in a 10 mL shake flask culture of chemically defined Isosensitest broth (Oxoid) supplemented with 2% w/v glucose. A sample of the shake flask culture was diluted to 1×10^6 cells/mL in media and added to 96-well test plates (100 µL per well) containing test compounds dispensed in DMSO (2 µL) using serial two-fold dilutions. After an incubation period (30°C) determined from the strain specific doubling time, a 0.03% w/v aqueous solution of resazurin (10 µL) was added and the plates were allowed to incubate; each well was then scored for dye reduction.

Streptococcus pyogenes = assay: MIC, broth microdilution with Alamar Blue; assay type: cell-based; conditions: for Selectivity S. pyogenes: IC50 (MCF10)/MIC (pathogen), both values in µM; for MIC: Streptococcus pyogenes
Method: as §3

MCF-10 cells = assay: Mammalian cell toxicity (Alamar Blue); assay type: cell-based; conditions: Homo sapiens, MCF10; cytotoxicity, 4 h incubation; read-out: IC50 MCF-10
Method: Adherent cell lines were maintained in Eagle's Minimal Essential Media (Sigma-Aldrich, St. Louis, MO, USA) with 2 mM glutamine and Earle's Balanced Salt Solution (HyClone, Logan, UT, USA) adjusted to contain 1.5 g/L sodium bicarbonate, 0.1 mM non-essential amino acids, 1 mM sodium pyruvate and 10% fetal calf serum. Fetal calf serum used in these assays was lot matched throughout. […] Toxicity assays were conducted between passages 10–20. Target compound toxicity was measured by incubating the test compound with the cells for 4 h, washing the cells and finally treating the cells with Alamar Blue. After 12–24 h, the fluorescence of the reduced dye was measured. Fluorescence intensity as a function of test compound concentration was fit to the Fermi equation, using non-linear least squares regression analysis, to estimate IC50 values.

HepG2 cells = assay: Mammalian cell toxicity (Alamar Blue); assay type: cell-based; conditions: Homo sapiens, cytotoxicity, 4 h incubation
Method: Fetal calf serum used in these assays was lot matched throughout. All cultures were maintained under a humidified 5% CO2 atmosphere at 37°C, had media refreshed twice weekly and were subcultured by trypsinization and resuspension at a ratio of 1∶5 each week. Toxicity assays were conducted between passages 10–20. Target compound toxicity was measured by incubating the test compound with the cells for 4 h, washing the cells and finally treating the cells with Alamar Blue. After 12–24 h, the fluorescence of the reduced dye was measured. Fluorescence intensity as a function of test compound concentration was fit to the Fermi equation, using non-linear least squares regression analysis, to estimate IC50 values.

[1] = tested on: Staphylococcus aureus subsp. aureus ATCC 44300; assay: MIC and MBC determination (microdilution, plating on Isosensitest agar); assay type: cell-based; conditions: ATCC44300
Source text: MBC was defined as the lowest concentration of inhibitor preventing colony growth on agar plates.

[2] = tested on: TMP-SMZ-resistant MRSA strain; assay: MIC against clinical isolates of MRSA; assay type: cell-based; conditions: Staphylococcus aureus, clinical isolate, Table 4, read-out: MIC TMP-SMZ^R
USA300 CA-MRSA = assay: MIC against clinical isolates of MRSA; assay type: cell-based, Staphylococcus aureus; conditions: Staphylococcus aureus, clinical isolate, read-out: MIC USA300 CA-MRSA
USA100 HA-MRSA = assay: MIC against clinical isolates of MRSA; assay type: cell-based; conditions: Staphylococcus aureus, clinical isolate, read-out: MIC USA100 HA-MRSA
HA-MRSA = assay: MIC against clinical isolates of MRSA; assay type: cell-based; conditions: Staphylococcus aureus, clinical isolate, read-out: MIC HA-MRSA
hVISA Mu3 = assay: MIC against clinical isolates of MRSA; assay type: cell-based; conditions: Staphylococcus aureus; heteroresistant vancomycin intermediate S. aureus; read-out: MIC hVISA Mu3
VISA Mu50 = assay: MIC against clinical isolates of MRSA; assay type: cell-based; conditions: Staphylococcus aureus, read-out: MIC VISA Mu50
[3] = tested on: MRSA strain containing the F98Y mutation; assay: MIC against MRSA strain containing the F98Y mutation; assay type: cell-based; conditions: Staphylococcus aureus, read-out: MIC against MRSA strain containing the F98Y mutation
MRSA strain ATCC 43300 = conditions: selection at ten times the MIC value
Method: Selective plates were grown for 30 hours at 37°C. […] Direct colony PCR was used to isolate and amplify the dfrA gene from resistant strains using methods described in [34]. All PCR products were screened for point mutations in DHFR by high quality DNA sequencing (Genewiz). Primers used to detect the dfrA gene contained restriction enzyme cut sites for NdeI and XhoI in order to ligate PCR products into the pET41 vector for further validation with DNA sequencing with the T7 promoter sequencing primer. Mutation frequencies were calculated based on the sequencing information provided for each mutant colony.

[4] = S. aureus DHFR, average of at least three measurements, read-out: IC50 (nM) Sa
[5] = 10% fetal calf serum, read-out: MIC MRSA +FCS
[6] = 10% fetal calf serum, value in parentheses, read-out: MIC MRSA +FCS
[7] = value in parentheses, read-out: MIC MRSA
[8] = 10% FCS, read-out: MIC S. pyogenes +FCS
[9] = 10% FCS, value in parentheses, read-out: MIC S. pyogenes +FCS
[10] = value in parentheses, read-out: MIC S. pyogenes

T1 sequence (P0A017 whole entry): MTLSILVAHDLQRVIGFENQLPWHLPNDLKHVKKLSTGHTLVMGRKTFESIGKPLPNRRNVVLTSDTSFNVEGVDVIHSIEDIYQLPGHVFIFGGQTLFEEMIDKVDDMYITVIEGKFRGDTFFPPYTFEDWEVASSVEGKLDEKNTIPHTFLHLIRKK
S. pyogenes DHFR, sequence (Q9A091 entry or part of it): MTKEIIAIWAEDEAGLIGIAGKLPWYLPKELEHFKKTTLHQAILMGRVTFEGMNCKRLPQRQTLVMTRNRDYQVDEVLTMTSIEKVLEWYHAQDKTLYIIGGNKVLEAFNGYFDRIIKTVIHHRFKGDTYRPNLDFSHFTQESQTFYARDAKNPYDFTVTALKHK

Structure (SMILES)	Selectivity (h/Sa) (S. aureus DHFR)	IC50 (S. aureus DHFR; [4]) [nM]	Selectivity (h/Sp) (S. pyogenes DHFR)	IC50 (Human DHFR) [nM]	Selectivity MRSA (MRSA (S.aureus 13709))	MIC (MRSA (S.aureus 13709); [7]) [µM]	MIC (MRSA (S.aureus 13709); read-out: MIC MRSA) [µg/mL]	MIC (Streptococcus pyogenes; [10]) [µM]	MIC (Streptococcus pyogenes; read-out: MIC S. pyogenes) [µg/mL]	IC50 (MCF-10 cells) [µM]	IC50 (HepG2 cells) [µM]	MIC [2] [µg/mL]	MIC (USA300 CA-MRSA; USA300) [µg/mL]	MIC (USA300 CA-MRSA) [µg/mL]	MIC (USA100 HA-MRSA; USA100) [µg/mL]	MIC (USA100 HA-MRSA; first USA100 column) [µg/mL]	MIC (USA100 HA-MRSA; third USA100 column) [µg/mL]	MIC (HA-MRSA) [µg/mL]	MIC (hVISA Mu3) [µg/mL]	MIC (VISA Mu50) [µg/mL]	further results
COc1cc(-c2ccncc2)cc(C(C)C#Cc2c(C)nc(N)nc2N)c1 (centres unmarked) [Compound 24]	58	26 ± 2	9.4	1500 ± 8	1,760	0.125	0.04	0.125	0.04	220	233	0.045 (≈ 0.125 µM)	0.09 (≈ 0.25 µM)	0.045 (≈ 0.125 µM)	0.045 (≈ 0.125 µM)	2.9 (≈ 8.07 µM)	0.09 (≈ 0.25 µM)	0.09 (≈ 0.25 µM)	0.045 (≈ 0.125 µM)	0.18 (≈ 0.501 µM)	MIC (MRSA (S.aureus 13709); [5]): 0.09 µg/mL; MIC (MRSA (S.aureus 13709); [6]): 0.25 µM; Selectivity S. pyogenes (Streptococcus pyogenes): 1,760; MIC (Streptococcus pyogenes; [8]): 0.09 µg/mL; MIC (Streptococcus pyogenes; [9]): 0.25 µM; MBC [1]: 0.078 µg/mL (≈ 0.217 µM); MIC [1]: 0.078 µg/mL (≈ 0.217 µM); MIC [3]: 2.5 µg/mL (≈ 6.96 µM); resistance frequency (MRSA strain ATCC 43300): 3.9×10^−10
CCc1nc(N)nc(N)c1C#CC(C)c1cc(OC)cc(-c2ccncc2)c1 (centres unmarked) [Compound 25]	–	–	–	1300 ± 11	–	0.5	0.09	0.032	0.012	85	171	0.09 (≈ 0.241 µM)	0.09 (≈ 0.241 µM)	0.045 (≈ 0.12 µM)	0.09 (≈ 0.241 µM)	2.9 (≈ 7.77 µM)	0.09 (≈ 0.241 µM)	0.02 (≈ 0.0536 µM)	0.09 (≈ 0.241 µM)	0.09 (≈ 0.241 µM)	IC50 (S. aureus DHFR): 19 ± 1 nM; IC50 (S. pyogenes DHFR): 180 ± 19 nM; MBC [1]: 0.078 µg/mL (≈ 0.209 µM); MIC [1]: 0.078 µg/mL (≈ 0.209 µM)
CCc1nc(N)nc(N)c1C#CCc1cc(-c2ccncc2)ccc1OC [Compound 26]	16	21 ± 1	17	330 ± 12	3,391	0.064	0.02	0.125	0.04	217	199	0.04 (≈ 0.111 µM)	0.08 (≈ 0.223 µM)	0.08 (≈ 0.223 µM)	0.08 (≈ 0.223 µM)	5.3 (≈ 14.7 µM)	0.04 (≈ 0.111 µM)	0.08 (≈ 0.223 µM)	0.04 (≈ 0.111 µM)	0.04 (≈ 0.111 µM)	MIC (MRSA (S.aureus 13709); [5]): 0.09 µg/mL; MIC (MRSA (S.aureus 13709); [6]): 0.25 µM; Selectivity S. pyogenes (Streptococcus pyogenes): 1,736; MIC (Streptococcus pyogenes; [8]): 0.09 µg/mL; MIC (Streptococcus pyogenes; [9]): 0.25 µM
